# Target: T1, recombinant human C-proteinase (Homo sapiens, UniProt P13497)
# T1 sequence (P13497 121-986): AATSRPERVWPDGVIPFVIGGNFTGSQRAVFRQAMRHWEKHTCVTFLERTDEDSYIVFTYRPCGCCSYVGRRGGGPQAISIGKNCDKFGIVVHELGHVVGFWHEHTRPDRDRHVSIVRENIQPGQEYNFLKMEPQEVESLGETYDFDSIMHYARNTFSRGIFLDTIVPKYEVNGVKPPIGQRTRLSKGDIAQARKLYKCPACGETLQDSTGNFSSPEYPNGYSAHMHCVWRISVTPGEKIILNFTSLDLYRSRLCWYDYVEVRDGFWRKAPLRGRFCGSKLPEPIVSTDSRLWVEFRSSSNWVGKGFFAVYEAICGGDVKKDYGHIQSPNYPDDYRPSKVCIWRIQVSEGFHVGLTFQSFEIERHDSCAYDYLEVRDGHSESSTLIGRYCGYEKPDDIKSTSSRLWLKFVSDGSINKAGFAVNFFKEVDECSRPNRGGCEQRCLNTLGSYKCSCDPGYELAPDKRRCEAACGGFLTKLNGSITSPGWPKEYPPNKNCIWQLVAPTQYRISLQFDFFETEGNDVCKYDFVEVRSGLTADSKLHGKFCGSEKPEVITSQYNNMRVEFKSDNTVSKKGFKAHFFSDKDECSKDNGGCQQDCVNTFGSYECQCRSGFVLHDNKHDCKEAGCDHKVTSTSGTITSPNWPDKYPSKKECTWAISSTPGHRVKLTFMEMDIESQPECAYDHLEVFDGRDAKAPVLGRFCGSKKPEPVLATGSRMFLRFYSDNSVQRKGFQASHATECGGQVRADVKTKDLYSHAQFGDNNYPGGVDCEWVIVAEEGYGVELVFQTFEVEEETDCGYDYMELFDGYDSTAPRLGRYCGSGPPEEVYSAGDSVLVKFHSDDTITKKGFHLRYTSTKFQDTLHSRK
# Assay: C-Proteinase IC50 assay, fluorogenic peptide
# Assay type: biochemical
# Settings: 50 μM fluorogenic peptide, pH 7.6, 4 hours at 37° C., fluorescence, read-out: C-Proteinase Inhibitor IC50
# Experimental: The following assay may be used to determine the level of activity and effect of the different compounds of the present invention on C-proteinase activity. […] The reaction proceeded for 4 hours at 37° C. and the fluorescence was measured using a Bio-Tek Fl-600.
row,SMILES,IC50
1,O=C(CCCC1C(=O)N(C23CC4CC(CC(C4)C2)C3)C(=O)N1Cc1ccccc1)NO (stereo not drawn) [Compound 102],0.77 µM
2,O=C(CCCC1C(=O)N(C2CCCCC2)C(=O)N1Cc1ccccc1)NO (stereo not drawn) [Compound 107],3.33 µM
3,O=C(CCCC1C(=O)N(C23CC4CC(CC(C4)C2)C3)C(=O)N1CC1CCCCC1)NO (stereo not drawn) [Compound 127],0.29 µM
4,O=C(CCCC1C(=O)N(C23CC4CC(CC(C4)C2)C3)C(=O)N1CC1CC2C=CC1C2)NO (stereo not drawn) [Compound 128],0.4 µM
5,O=C(CCCC1C(=O)N(C23CC4CC(CC(C4)C2)C3)C(=O)N1CC1CC1)NO (stereo not drawn) [Compound 131],0.43 µM
6,O=C(CCCC1C(=O)N(C23CC4CC(CC(C4)C2)C3)C(=O)N1Cc1cc(O)ccc1O)NO (stereo not drawn) [Compound 137],0.059 µM
7,COc1ccc(O)c(CN2C(=O)N(C34CC5CC(CC(C5)C3)C4)C(=O)C2CCCC(=O)NO)c1 (stereo not drawn) [Compound 139],0.26 µM
8,O=C(CCCC1C(=O)N(C23CC4CC(CC(C4)C2)C3)C(=O)N1Cc1ccccc1O)NO (stereo not drawn) [Compound 155],0.27 µM
9,O=C(CCCC1C(=O)N(C23CC4CC(CC(C4)C2)C3)C(=O)N1Cc1cccc(O)c1)NO (stereo not drawn) [Compound 161],0.14 µM
10,COc1ccccc1CN1C(=O)N(C23CC4CC(CC(C4)C2)C3)C(=O)C1CCCC(=O)NO (stereo not drawn) [Compound 163],0.6 µM
11,COc1cccc(CN2C(=O)N(C34CC5CC(CC(C5)C3)C4)C(=O)C2CCCC(=O)NO)c1O (stereo not drawn) [Compound 168],0.43 µM
12,O=C(CCCC1C(=O)N(C23CC4CC(CC(C4)C2)C3)C(=O)N1Cc1ccccn1)NO (stereo not drawn) [Compound 174],0.21 µM
13,O=C(CCCC1C(=O)N(C23CC4CC(CC(C4)C2)C3)C(=O)N1Cc1ccco1)NO (stereo not drawn) [Compound 176],0.23 µM
14,O=C(CCCC1C(=O)N(C23CC4CC(CC(C4)C2)C3)C(=O)N1Cc1cccc2c1OCO2)NO (stereo not drawn) [Compound 179],0.23 µM
15,O=C(CCCC1C(=O)N(C23CC4CC(CC(C4)C2)C3)C(=O)N1CC1=COCCC1)NO (stereo not drawn) [Compound 192],0.21 µM
16,O=C(CCCC1C(=O)N(C2CCCCC2)C(=O)N1Cc1ccccc1O)NO (stereo not drawn) [Compound 195],1.08 µM
17,O=C(CCCC1C(=O)N(C2CCCCC2)C(=O)N1Cc1cccc(O)c1)NO (stereo not drawn) [Compound 198],1.24 µM
18,O=C(CSCC1C(=O)N(C23CC4CC(CC(C4)C2)C3)C(=O)N1Cc1ccccn1)NO (stereo not drawn) [Compound 199],0.29 µM

# — patent US6462063B1, “C-proteinase inhibitors” (Fibrogen, Inc., priority 2000, dated 2002)
